Read-outs that look alike come from different tables or passages of the source.
What was measured:
human recombinant CB1R = human recombinant CB1R (Homo sapiens (Human), UniProt P21554); assay: CB1 receptor binding assay ([3H]CP-55,940 displacement, HEK-293 membranes)
Experimental: The compounds were evaluated in CB1R and CB2R binding assays using membranes from HEK-293 cells transfected with cDNAs encoding the human recombinant CB1R (Bmax=[…] protein) and human recombinant CB2R (Bmax=[…] protein) (Perkin-Elmer). […]. Compounds were tested following the procedure described by the cell membrane manufacturer. […] CB2R binding assays were carried out with two different buffers: incubation buffer (Tris-HCl, 50 mM; MgCl2, 5 mM; CaCl2 1 mM; BSA, 0.2% at pH 7.4) and washing buffer (Tris-HCl, 50 mM; NaCl 500 mM; BSA, 0.1% at pH 7.4). […] Assays were performed in duplicate and incubated for […] at 37° C. After the incubation, the assay mixture is filtered through 96 GF/C filter plates (Perkin Elmer #6005174) using Perkin Elmer Filtermate Harvester, and then washed four times with ice-cold washing buffer. The filters are dried for 1 hour at 50° C. and [^3H] trapped on filter counted for radioactivity in Perkin Elmer Microscint 20 cocktail (#6013329) using Perkin Elmer MicroBeta2 Reader. […] Data are analyzed and IC50 is calculated using GraphPad Prism 5 and the model “log(inhibitor) vs. response—Variable slope”. The binding affinity of the compounds is Determined by Using the Cheng and Prusoff Equation Ki=IC50/(1+[radioligand]/Kd).

human CB2 receptor = human CB2 receptor (Homo sapiens (Human), UniProt P34972); assay: CB2 receptor binding assay ([3H]CP-55,940 displacement, HEK-293 membranes)
Sequence of human CB2 receptor (P34972 whole entry): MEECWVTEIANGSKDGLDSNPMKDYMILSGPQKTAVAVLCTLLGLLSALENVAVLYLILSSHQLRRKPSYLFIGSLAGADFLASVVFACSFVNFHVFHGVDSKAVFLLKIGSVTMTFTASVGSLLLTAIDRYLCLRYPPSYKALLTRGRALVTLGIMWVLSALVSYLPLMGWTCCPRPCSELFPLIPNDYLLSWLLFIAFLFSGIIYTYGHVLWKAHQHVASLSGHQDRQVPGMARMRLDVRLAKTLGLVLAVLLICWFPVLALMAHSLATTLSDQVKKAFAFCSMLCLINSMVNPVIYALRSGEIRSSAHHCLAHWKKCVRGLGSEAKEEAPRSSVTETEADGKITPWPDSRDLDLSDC

[1] = membranes of HEK-293 cells with human recombinant CB1R, [3H]CP-55,940, class symbols, read-out: CB1 IC50
[2] = membranes of HEK-293 cells with human recombinant CB2R, [3H]CP-55,940, class symbols, read-out: CB2 IC50
[3] = membranes of HEK-293 cells with human recombinant CB1R, [3H]CP-55,940, read-out: CB1 IC50
[4] = membranes of HEK-293 cells with human recombinant CB2R, [3H]CP-55,940, read-out: CB2 IC50

Sequence of human recombinant CB1R (P21554 whole entry): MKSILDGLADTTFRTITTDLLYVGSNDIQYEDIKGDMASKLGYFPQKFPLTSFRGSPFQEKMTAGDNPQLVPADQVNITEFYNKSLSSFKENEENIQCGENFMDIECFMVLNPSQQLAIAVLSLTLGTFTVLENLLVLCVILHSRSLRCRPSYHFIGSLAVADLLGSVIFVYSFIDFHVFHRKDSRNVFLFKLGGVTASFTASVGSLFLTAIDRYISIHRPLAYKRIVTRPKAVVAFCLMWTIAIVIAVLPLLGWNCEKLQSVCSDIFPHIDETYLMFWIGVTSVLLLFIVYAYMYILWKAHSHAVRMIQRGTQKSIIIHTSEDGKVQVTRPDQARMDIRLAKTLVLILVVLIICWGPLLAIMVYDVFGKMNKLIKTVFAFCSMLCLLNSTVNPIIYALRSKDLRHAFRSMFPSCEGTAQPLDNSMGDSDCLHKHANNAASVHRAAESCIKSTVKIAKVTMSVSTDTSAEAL

SMILES	IC50 (human recombinant CB1R; [1]) [nM]	IC50 (human CB2 receptor; [2]) [nM]	IC50 (human CB2 receptor) [nM]	other results
O=C(NC1CC2(CCC2)C1)c1cc2cc(-c3ccc(F)cc3)cnc2n(Cc2cccnc2)c1=O [Compound 97, 6-(4-fluorophenyl)-2-oxo-1-(pyridin-3-ylmethyl)-N-(spiro[3.3]heptan-2-yl)-1,2-dihydro-1,8-naphthyridine-3-carboxamide]	> 1000	< 100	–	–
C[C@@H](NC(=O)c1cc2cc(Br)cnc2n(Cc2ccc(C#N)cc2)c1=O)c1ccc(F)cc1 [Compound 104, (R)-6-bromo-1-(4-cyanobenzyl)-N-(1-(4-fluorophenyl)ethyl)-2-oxo-1,2-dihydro-1,8-naphthyridine-3-carboxamide]	> 1000	< 100	–	–
O=C(NC1CC2(CCC2)C1)c1cc2cc(-c3ccc(F)cc3)cnc2n(Cc2ccccn2)c1=O [Compound 106, 6-(4-fluorophenyl)-2-oxo-1-(pyridin-2-ylmethyl)-N-(spiro[3.3]heptan-2-yl)-1,2-dihydro-1,8-naphthyridine-3-carboxamide]	> 1000	< 100	–	–
CC(C)c1cnc2c(c1)cc(C(=O)N[C@H](C)c1ccc(C#N)cc1)c(=O)n2Cc1ccc(F)cn1 [Compound 108, (R)—N-(1-(4-cyanophenyl)ethyl)-1-((5-fluoropyridin-2-yl)methyl)-6-isopropyl-2-oxo-1,2-dihydro-1,8-naphthyridine-3-carboxamide]	> 1000	–	100 to 999	–
C[C@H]1CC[C@@H](NC(=O)c2c(O)c3cc(-c4ccc(F)cc4)cnc3n(CCN3CCOCC3)c2=O)CC1 [Compound 109, 6-(4-fluorophenyl)-4-hydroxy-N-((1s, 4s)-4-methylcyclohexyl)-1-(2-morpholinoethyl)-2-oxo-1,2-dihydro-1,8-naphthyridine-3-carboxamide]	> 1000	< 100	–	–
CC12CC(NC(=O)c3c(O)c4cc(-c5ccc(F)cc5)cnc4n(CCN4CCOCC4)c3=O)(C1)C2 [Compound 110, 6-(4-fluorophenyl)-4-hydroxy-N-(3-methylbicyclo[1.1.1]pentan-1-yl)-1-(2-morpholinoethyl)-2-oxo-1,2-dihydro-1,8-naphthyridine-3-carboxamide]	–	–	100 to 999	IC50 (human recombinant CB1R): 100 to 999 nM
CC1(C)CC(NC(=O)c2c(O)c3cc(-c4ccc(F)cc4)cnc3n(CCN3CCOCC3)c2=O)C1 [Compound 111, N-(3,3-dimethylcyclobutyl)-6-(4-fluorophenyl)-4-hydroxy-1-(2-morpholinoethyl)-2-oxo-1,2-dihydro-1,8-naphthyridine-3-carboxamide]	–	< 100	–	IC50 (human recombinant CB1R): 100 to 999 nM
O=C(NC1CC2(CC2)C1)c1c(O)c2cc(-c3ccc(F)cc3)cnc2n(CCN2CCOCC2)c1=O [Compound 112, 6-(4-fluorophenyl)-4-hydroxy-1-(2-morpholinoethyl)-2-oxo-N-(spiro[2.3]hexan-5-yl)-1,2-dihydro-1,8-naphthyridine-3-carboxamide]	> 1000	< 100	–	–
C[C@H]1C[C@@H](NC(=O)c2c(O)c3cc(-c4ccc(F)cc4)cnc3n(CCN3CCOCC3)c2=O)C1 [Compound 113, 6-(4-fluorophenyl)-4-hydroxy-N-((1s, 3s)-3-methylcyclobutyl)-1-(2-morpholinoethyl)-2-oxo-1,2-dihydro-1,8-naphthyridine-3-carboxamide]	> 1000	> 1000	–	–
C[C@H]1C[C@H](NC(=O)c2c(O)c3cc(-c4ccc(F)cc4)cnc3n(CCN3CCOCC3)c2=O)C1 [Compound 114, 6-(4-fluorophenyl)-4-hydroxy-N-((1r, 3r)-3-methylcyclobutyl)-1-(2-morpholinoethyl)-2-oxo-1,2-dihydro-1,8-naphthyridine-3-carboxamide]	> 1000	–	100 to 999	–
O=C(NC12CCC(C1)C2)c1c(O)c2cc(-c3ccc(F)cc3)cnc2n(CCN2CCOCC2)c1=O [Compound 115, N-(bicyclo[2.1.1]hexan-1-yl)-6-(4-fluorophenyl)-4-hydroxy-1-(2-morpholinoethyl)-2-oxo-1,2-dihydro-1,8-naphthyridine-3-carboxamide]	–	–	–	IC50 (human recombinant CB1R; [3]): 552 nM; IC50 (human CB2 receptor; [4]): 29 nM
O=C(NC12CCC(CC1)CC2)c1c(O)c2cc(-c3ccc(F)cc3)cnc2n(CCN2CCOCC2)c1=O [Compound 116, N-(bicyclo[2.2.2]octan-1-yl)-6-(4-fluorophenyl)-4-hydroxy-1-(2-morpholinoethyl)-2-oxo-1,2-dihydro-1,8-naphthyridine-3-carboxamide]	–	–	–	IC50 (human recombinant CB1R; [3]): 1480 nM; IC50 (human CB2 receptor; [4]): 31 nM
CC(C)(CO)NC(=O)c1c(O)c2cc(-c3ccc(F)cc3)cnc2n(CCN2CCOCC2)c1=O [Compound 117, 6-(4-fluorophenyl)-4-hydroxy-N-(1-hydroxy-2-methylpropan-2-yl)-1-(2-morpholinoethyl)-2-oxo-1,2-dihydro-1,8-naphthyridine-3-carboxamide]	> 1000	–	100 to 999	–
CC(C)(C)NC(=O)c1c(O)c2cc(-c3ccc(F)cc3)cnc2n(CCN2CCOCC2)c1=O [Compound 118, N-(tert-butyl)-6-(4-fluorophenyl)-4-hydroxy-1-(2-morpholinoethyl)-2-oxo-1,2-dihydro-1,8-naphthyridine-3-carboxamide]	> 1000	–	100 to 999	–
COC(=O)C(C)(C)NC(=O)c1c(O)c2cc(-c3ccc(F)cc3)cnc2n(CCN2CCOCC2)c1=O [Compound 119, methyl 2-(6-(4-fluorophenyl)-4-hydroxy-1-(2-morpholinoethyl)-2-oxo-1,2-dihydro-1,8-naphthyridine-3-carboxamido)-2-methylpropanoate]	> 1000	–	100 to 999	–
CC(C)(NC(=O)c1c(O)c2cc(-c3ccc(F)cc3)cnc2n(CCN2CCOCC2)c1=O)C(=O)O [Compound 120, 2-(6-(4-fluorophenyl)-4-hydroxy-1-(2-morpholinoethyl)-2-oxo-1,2-dihydro-1,8-naphthyridine-3-carboxamido)-2-methylpropanoic acid]	> 1000	> 1000	–	–
O=C(NC1(CO)CCCCC1)c1c(O)c2cc(-c3ccc(F)cc3)cnc2n(CCN2CCOCC2)c1=O [Compound 121, 6-(4-fluorophenyl)-4-hydroxy-N-(1-(hydroxymethyl)cyclohexyl)-1-(2-morpholinoethyl)-2-oxo-1,2-dihydro-1,8-naphthyridine-3-carboxamide]	–	–	–	IC50 (human recombinant CB1R; [3]): 2320 nM; IC50 (human CB2 receptor; [4]): 9 nM
O=C(NC12CC(C1)C2)c1c(O)c2cc(-c3ccc(F)cn3)cnc2n(CCN2CCOCC2)c1=O [Compound 122, N-(bicyclo[1.1.1]pentan-1-yl)-6-(5-fluoropyridin-2-yl)-4-hydroxy-1-(2-morpholinoethyl)-2-oxo-1,2-dihydro-1,8-naphthyridine-3-carboxamide]	> 1000	–	100 to 999	–
O=C(NC12CC(C1)C2)c1c(O)c2cc(-c3cccnc3)cnc2n(CCN2CCOCC2)c1=O [Compound 123, N-(bicyclo[1.1.1]pentan-1-yl)-4-hydroxy-1-(2-morpholinoethyl)-2-oxo-6-(pyridin-3-yl)-1,2-dihydro-1,8-naphthyridine-3-carboxamide]	> 1000	> 1000	–	–
O=C(NC12CC(C1)C2)c1c(O)c2cc(-c3ccncc3)cnc2n(CCN2CCOCC2)c1=O [Compound 124, N-(bicyclo[1.1.1]pentan-1-yl)-4-hydroxy-1-(2-morpholinoethyl)-2-oxo-6-(pyridin-4-yl)-1,2-dihydro-1,8-naphthyridine-3-carboxamide]	> 1000	> 1000	–	–
O=C(NC12CC(C1)C2)c1c(O)c2cc(C3=CCCC3)cnc2n(CCN2CCOCC2)c1=O [Compound 125, N-(bicyclo[1.1.1]pentan-1-yl)-6-(cyclopent-1-en-1-yl)-4-hydroxy-1-(2-morpholinoethyl)-2-oxo-1,2-dihydro-1,8-naphthyridine-3-carboxamide]	> 1000	–	100 to 999	–
O=C(NC12CC(C1)C2)c1c(O)c2cc(C3CCCC3)cnc2n(CCN2CCOCC2)c1=O [Compound 126, N-(bicyclo[1.1.1]pentan-1-yl)-6-cyclopentyl-4-hydroxy-1-(2-morpholinoethyl)-2-oxo-1,2-dihydro-1,8-naphthyridine-3-carboxamide]	> 1000	> 1000	–	–
O=C(NC12CC(C1)C2)c1c(O)c2cc(C3CCC3)cnc2n(CCN2CCOCC2)c1=O [Compound 127, N-(bicyclo[1.1.1]pentan-1-yl)-6-cyclobutyl-4-hydroxy-1-(2-morpholinoethyl)-2-oxo-1,2-dihydro-1,8-naphthyridine-3-carboxamide]	> 1000	> 1000	–	–
O=C(NC12CC(C1)C2)c1c(O)c2cc(-c3ccc(F)cc3)cnc2n(CCN2CCCCC2)c1=O [Compound 128, N-(bicyclo[1.1.1]pentan-1-yl)-6-(4-fluorophenyl)-4-hydroxy-2-oxo-1-(2-(piperidin-1-yl)ethyl)-1,2-dihydro-1,8-naphthyridine-3-carboxamide]	> 1000	–	100 to 999	–

Reference: patent US11564928B1, “Cannabinoid receptor type 2 (CB2) modulators and uses thereof” (Teon Therapeutics, Inc., priority 2020, dated 2023)
